Measurements reported in patent publication US20230128120A1, “OMEGA MURICHOLIC ACID AS A PREGNANE X RECEPTOR LIGAND FOR TREATING HEPATO-INTESTINAL DISEASES” (University of Washington, priority 2021, published 2023).
“Also recorded” adds a separate entry of the source.

Legend:
Assay type in all cases: cell-based
human PXR = target: T1, human PXR (Homo sapiens, UniProt O75469); test: Reporter assay in LS intestinal cells transfected with human PXR + reporter; details: 24 h incubation, dose-response, up to the maximum tested concentration, four cell passages
T1 sequence (O75469 1-434): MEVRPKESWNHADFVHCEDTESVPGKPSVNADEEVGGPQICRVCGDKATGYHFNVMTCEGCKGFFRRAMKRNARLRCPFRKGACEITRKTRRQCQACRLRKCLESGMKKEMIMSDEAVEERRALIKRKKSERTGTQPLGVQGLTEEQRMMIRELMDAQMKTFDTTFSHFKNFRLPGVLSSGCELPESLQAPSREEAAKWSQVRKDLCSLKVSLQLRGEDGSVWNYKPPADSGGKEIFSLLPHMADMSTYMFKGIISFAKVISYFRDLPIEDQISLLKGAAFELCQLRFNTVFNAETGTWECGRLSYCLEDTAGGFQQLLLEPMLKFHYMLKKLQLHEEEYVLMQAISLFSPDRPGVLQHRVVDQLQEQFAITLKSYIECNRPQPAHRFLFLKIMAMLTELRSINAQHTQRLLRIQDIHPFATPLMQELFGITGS
Protocol: Reporter assay was performed using LS intestinal cells transfected with human PXR + reporter. Incubation time was 24 h and a dose-response curve was plotted. Results were confirmed using four different cells passages.
Percent displacement of reporter from human PXR as a function of MDCA concentration was evaluated and the results are shown in FIG. 9.
A reporter assay was performed using LS intestinal cells transfected with human PXR + reporter. Incubation time was 24 h and a dose-response curve was plotted. Results were confirmed using four different cells passages.

mouse PXR (mPXR) = target: T2, mouse PXR (mPXR) (Mus musculus, UniProt O54915); test: Luciferase reporter assay with mouse PXR (mPXR) plasmid; details: in vitro at 1 µM and 10 µM
T2 construct: expressed in transfected cells
T2 sequence (O54915 1-431): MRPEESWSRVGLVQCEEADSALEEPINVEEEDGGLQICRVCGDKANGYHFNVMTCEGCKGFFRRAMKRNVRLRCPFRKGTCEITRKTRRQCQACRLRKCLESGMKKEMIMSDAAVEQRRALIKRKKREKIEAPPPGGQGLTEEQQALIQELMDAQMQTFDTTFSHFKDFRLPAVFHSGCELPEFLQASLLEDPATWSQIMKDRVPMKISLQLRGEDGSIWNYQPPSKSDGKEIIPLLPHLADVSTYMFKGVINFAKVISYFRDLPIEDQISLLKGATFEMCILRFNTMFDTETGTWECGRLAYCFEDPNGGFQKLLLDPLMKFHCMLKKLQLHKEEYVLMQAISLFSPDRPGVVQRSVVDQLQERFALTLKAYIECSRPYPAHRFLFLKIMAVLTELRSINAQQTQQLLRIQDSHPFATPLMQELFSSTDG
Excerpt: (§1) Data are expressed as average of relative luciferase units among the technical triplicates ± S.E. Asterisks (*) represent statistically significant difference as compared to the vehicle group (one-way ANOVA followed by Duncan’s post hoc test, p < 0.05).
(§2) The prototypical mPXR ligand pregnenolone 16α-carbonitrile (PCN) was used as a positive control (FIG. 4B right panel). […] The prototypical hPXR ligand rifampicin (Rif) was used as a positive control (FIG. 4B left panel).

human PXR (hPXR) = target: T3, human PXR (hPXR) (Homo sapiens, UniProt O75469); test: Luciferase reporter assay with human PXR (hPXR) plasmid; details: in vitro at 5 µM
T3 construct: expressed in transfected cells
T3 sequence (O75469 1-434): T1 sequence (O75469 1-434)
Excerpt: as §1, §2

| SMILES | binding affinity towards PXR (percent displacement of reporter from human PXR) (human PXR; listed as MDCA) | mPXR activation (relative luciferase units vs vehicle) (mouse PXR (mPXR)) | hPXR activation (relative luciferase units vs vehicle) (human PXR (hPXR)) | binding affinity towards PXR (percent displacement of reporter from human PXR) (human PXR) |
| --- | --- | --- | --- | --- |
| C[C@H](CCC(=O)O)[C@H]1CC[C@H]2[C@@H]3C[C@H](O)[C@@H]4C[C@H](O)CC[C@]4(C)[C@H]3CC[C@]12C [murideoxycholic acid] | no binding affinity; also recorded: totally inactive |  |  |  |
| C[C@H](CCC(=O)O)[C@H]1CC[C@H]2[C@@H]3[C@@H](O)[C@H](O)[C@@H]4C[C@H](O)CC[C@]4(C)[C@H]3CC[C@]12C [omega muricholic acid, ω-muricholic acid] |  | activated | weakly activated | effective binding |
